# Measured values as given in the Kinase Knowledgebase extract (Sharma et al. 2016).
# Target: CDK2 (human) (UniProt P24941)
# Assay: Enzyme Assay
row,SMILES,IC50 [µM]
1,Cc1c(NC2CCCNC2)nc2ccnn2c1Nc1ccc(-c2ccc(N)cc2)cc1 (stereo not drawn),< 100
2,Cc1c(N[C@H]2CC[C@H](N)CC2)nc2ccnn2c1Nc1ccc(F)c(Cl)c1,< 100
3,N[C@H]1CC[C@H](Nc2cc(NCc3ccc(F)c(Cl)c3)n3ncc(Br)c3n2)CC1,< 100
4,Cc1c(N[C@H]2CC[C@H](N)CC2)nc2ccnn2c1Nc1ccc(OCc2ccccc2Cl)cc1,< 100
5,Cc1c(N[C@H]2CC[C@H](N)CC2)nc2ccnn2c1Nc1ccc(-c2cc3ccccc3s2)cc1,< 100
6,COc1cccc(-c2ccc(Nc3c(C)c(N[C@H]4CC[C@H](N)CC4)nc4ccnn34)cc2)c1,< 100
7,Cc1c(N[C@H]2CC[C@H](N)CC2)nc2ccnn2c1Nc1cccc(OCC2CCCC2)c1,< 100
8,CC(=O)c1ccc(-c2ccc(Nc3c(C)c(N[C@H]4CC[C@H](N)CC4)nc4ccnn34)cc2)s1,< 100
9,Cc1c(N[C@H]2CC[C@H](N)CC2)nc2ccnn2c1Nc1ccc(OCCN2CCOCC2)cc1,< 100
10,COc1cccc(Nc2c(C)c(N[C@H]3CC[C@H](N)CC3)nc3ccnn23)c1,< 100
11,Cc1ccccc1COc1cccc(Nc2c(C)c(N[C@H]3CC[C@H](N)CC3)nc3ccnn23)c1,< 100
12,CCOc1ccc(-c2ccc(Nc3c(C)c(N[C@H]4CC[C@H](N)CC4)nc4ccnn34)cc2)cc1,< 100
13,CCOc1ccc(Nc2c(C)c(N[C@H]3CC[C@H](N)CC3)nc3ccnn23)cc1,< 100
14,Cc1c(NC2CCCNC2)nc2ccnn2c1Nc1ccc(-c2cccc(N)c2)cc1 (stereo not drawn),< 100
15,CCc1c(NC2CCCNC2)nc2ccnn2c1Nc1ccc(OC)c(Cl)c1 (stereo not drawn),< 100
16,CCS(=O)(=O)c1ccc(-c2ccc(Nc3c(C)c(N[C@H]4CC[C@H](N)CC4)nc4ccnn34)cc2)cc1,< 100
17,Cc1c(N[C@H]2CC[C@H](N)CC2)nc2ccnn2c1Nc1ccc(C(=O)NCc2ccco2)cc1,< 100
18,CCOc1ccc(Nc2c(OC)c(NC3CCCNC3)nc3ccnn23)cc1 (stereo not drawn),< 100
19,CCOC(=O)c1cccc(Nc2c(CC)c(N[C@H]3CC[C@H](N)CC3)nc3ccnn23)c1,< 100
20,Cc1c(N[C@H]2CC[C@H](N)CC2)nc2ccnn2c1Nc1ccc(C(=O)c2ccccc2)cc1,< 100
21,CCOc1ccc(Nc2c(CC)c(N[C@H]3CC[C@H](N)CC3)nc3ccnn23)cc1,< 100
22,Cc1c(N[C@H]2CC[C@H](N)CC2)nc2c(C#N)cnn2c1Nc1ccc(F)c(Cl)c1,< 100
23,Cc1c(NC2CCCNC2)nc2ccnn2c1Nc1ccc(I)cc1 (stereo not drawn),< 100

row,SMILES,IC50 [µM]
1,Cc1c(N[C@H]2CC[C@H](N)CC2)nc2ccnn2c1Nc1ccc(-c2ccc(N)cc2)cc1,< 100
2,CCOc1ccc(Nc2c(C)c(N(CC)C3CCCNC3)nc3ccnn23)cc1 (stereo not drawn),< 100
3,Cc1c(N[C@H]2CC[C@H](N)CC2)nc2ccnn2c1Nc1cccc(CO)c1,< 100
4,CCOc1ccc(Nc2c(C)c(N[C@H]3CC[C@H](N)CC3)nc3c(C(=O)Nc4ccncc4)cnn23)cc1,< 100
5,Cc1ccc(COc2cccc(Nc3c(C)c(N[C@H]4CC[C@H](N)CC4)nc4ccnn34)c2)cc1,< 100
6,Cc1c(N[C@H]2CC[C@H](N)CC2)nc2ccnn2c1Nc1ccc2cc[nH]c2c1,< 100
7,Cc1c(N[C@H]2CC[C@H](N)CC2)nc2ccnn2c1Nc1cccc(Br)c1,< 100
8,Cc1c(NC2CCCNC2)nc2ccnn2c1Nc1ccc(-c2ccsc2)cc1 (stereo not drawn),< 100
9,CCOC(=O)c1ccc(Nc2c(CC)c(N[C@H]3CC[C@H](N)CC3)nc3ccnn23)cc1Cl,< 100
10,Cc1c(NC2CCCNC2)nc2ccnn2c1Nc1ccc(F)c(Cl)c1 (stereo not drawn),< 100
11,Cc1c(N[C@H]2CC[C@H](N)CC2)nc2ccnn2c1Nc1ccc(-c2ccc(CO)cc2)cc1,< 100
12,Cc1c(N[C@H]2CC[C@H](N)CC2)nc2ccnn2c1Nc1ccc(-c2cn[nH]c2)cc1,< 100
13,Cc1c(N[C@H]2CC[C@H](N)CC2)nc2ccnn2c1Nc1ccc(OCCC2CCCCC2)cc1,< 100
14,Cc1c(N[C@H]2CC[C@H](N)CC2)nc2ccnn2c1Nc1ccccc1,< 100
15,Cc1c(N[C@H]2CC[C@H](N)CC2)nc2ccnn2c1Nc1ccc(C(F)(F)F)cc1,< 100
16,CCOc1ccc(Nc2c(C)c(N[C@H]3CC[C@H](N)CC3)nc3c(C(=O)NCCN(C)C)cnn23)cc1,< 100
17,Cc1c(N[C@H]2CC[C@H](N)CC2)nc2ccnn2c1Nc1ccc(C(=O)NCc2cccnc2)cc1,< 100
18,Cc1nc2cc(Nc3c(C)c(N[C@H]4CC[C@H](N)CC4)nc4ccnn34)ccc2s1,< 100
19,Cc1c(N[C@H]2CC[C@H](N)CC2)nc2ccnn2c1Nc1ccc(-c2cccc(N)c2)cc1,< 100
20,Cc1c(N[C@H]2CC[C@H](N)CC2)nc2ccnn2c1Nc1ccc(-c2cccc(OC(F)(F)F)c2)cc1,< 100
21,CSc1cnn2c(Nc3ccc(F)c(Cl)c3)cc(N[C@H]3CC[C@H](N)CC3)nc12,< 100
22,Cc1c(N[C@H]2CC[C@H](N)CC2)nc2ccnn2c1Nc1ccc(OC(C)C)cc1,< 100
23,Cc1c(N[C@H]2CC[C@H](N)CC2)nc2ccnn2c1Nc1ccc(OCCC2CCCCN2)cc1 (stereo partly drawn),< 100

row,SMILES,IC50 [µM]
1,CCOc1ccc(Nc2c(C)c(N[C@H]3CC[C@H](N)CC3)nc3c(S(C)(=O)=O)cnn23)cc1,< 100
2,Cc1c(N[C@H]2CC[C@H](N)CC2)nc2ccnn2c1Nc1ccc(OCC2CCCCC2)cc1,< 100
3,Cc1c(N[C@H]2CC[C@H](N)CC2)nc2ccnn2c1Nc1cccc(OCc2ccc(Cl)cc2)c1,< 100
4,CCc1c(N[C@H]2CC[C@H](N)CC2)nc2ccnn2c1Nc1cccc(Oc2ccccc2)c1,< 100
5,CCc1c(N[C@H]2CC[C@H](N)CC2)nc2ccnn2c1Nc1ccc(Br)cc1,< 100
6,CCOc1ccc(Nc2c(C)c(N[C@H]3CC[C@H](N)CC3)nc3c(C(=O)Nc4ncc[nH]4)cnn23)cc1,< 100
7,CCc1c(N[C@H]2CC[C@H](N)CC2)nc2ccnn2c1Nc1ccccc1Cl,< 100
8,CCc1c(N[C@H]2CC[C@H](N)CC2)nc2ccnn2c1Nc1ccccc1OC,< 100
9,CCCCC(=O)c1cnn2c(Nc3ccc(OCC)cc3)c(C)c(N[C@H]3CC[C@H](N)CC3)nc12,< 100
10,Cc1c(N[C@H]2CC[C@H](N)CC2)nc2c(F)cnn2c1Nc1ccc(I)cc1,< 100
11,Cc1c(N[C@H]2CC[C@H](N)CC2)nc2ccnn2c1Nc1ccc2c(c1)OCCO2,< 100
12,Cc1c(N[C@H]2CC[C@H](N)CC2)nc2ccnn2c1Nc1ccc(-c2ccccc2F)cc1,< 100
13,CCOc1ccccc1Nc1c(C)c(N[C@H]2CC[C@H](N)CC2)nc2ccnn12,< 100
14,Cc1c(N[C@H]2CC[C@H](N)CC2)nc2ccnn2c1Nc1ccc(OCCc2ccncc2)cc1,< 100
15,CCOc1ccc(Nc2c(-c3ccc(OC)cc3)c(N[C@H]3CC[C@H](N)CC3)nc3ccnn23)cc1,< 100
16,CCOc1ccc(Nc2c(C)c(NC3CCCNC3)nc3c(C4CC4)cnn23)cc1 (stereo not drawn),< 100
17,C=CCNc1c(CC)c(N[C@H]2CC[C@H](N)CC2)nc2ccnn12,< 100
18,COc1cccc(COc2cccc(Nc3c(C)c(N[C@H]4CC[C@H](N)CC4)nc4ccnn34)c2)c1,< 100
19,CC1=[SH]c2cc(Nc3c(C)c(N[C@H]4CC[C@H](N)CC4)nc4ccnn34)ccc2N1,< 100
20,CCOc1ccc(Nc2c(C)c(N[C@@H]3CN[C@@H](C(=O)O)C3)nc3ccnn23)cc1,< 100
21,CCOc1ccc(Nc2c(C)c(NC3CCCNC3)nc3c(CC)cnn23)cc1 (stereo not drawn),< 100
22,CCCc1c(N[C@H]2CC[C@H](N)CC2)nc2c(Br)cnn2c1Nc1ccc(F)c(Cl)c1,< 100
